Assay results from publication PMC3576085 (The Journal of Biological Chemistry, 2012).

Target: T1, CBM65B (EcCel5A) ([Eubacterium] cellulosolvens, UniProt Q3LHN3)
T1 sequence (Q3LHN3 581-713): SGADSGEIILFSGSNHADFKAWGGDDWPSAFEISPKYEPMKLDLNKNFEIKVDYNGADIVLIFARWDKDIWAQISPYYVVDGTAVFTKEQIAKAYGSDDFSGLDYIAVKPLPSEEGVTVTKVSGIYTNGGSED
Test: ITC
Assay type: binding
Conditions: 50 mM Na-HEPES pH 7.5, 25 °C; n 1

With OC[C@H]1O[C@@H](O[C@H]2[C@H](O)[C@@H](O)[C@H](O[C@H]3[C@H](O)[C@@H](O)[C@H](O[C@H]4[C@H](O)[C@@H](O)[C@H](O[C@H]5[C@H](O)[C@@H](O)[C@H](O[C@H]6[C@H](O)[C@@H](O)C(O)O[C@@H]6CO)O[C@@H]5CO)O[C@@H]4CO)O[C@@H]3CO)O[C@@H]2CO)[C@H](O)[C@@H](O)[C@@H]1O (stereo partly shown) [C6, cellohexaose] the Ka was 2.3 (±0.2) x 10^3.
